Experimental data as given in ChEMBL document CHEMBL4190348, “Synthesis of cytotoxically active derivatives based on alkylated 2,3-seco-triterpenoids” (Eur J Med Chem, 2017).
≈ marks a conversion by molar mass, not a printed value. Calls of active or inactive are those of the source. The rule behind the calls is not given here.

Assays:
[1] = test system: HCT-116; test: Cytotoxicity against human HCT116 cells assessed as reduction in cell viability incubated for 72 hrs by MTT assay; assay type: functional, cell-based; details: HCT-116, 72 h
[2] = test system: Human immunodeficiency virus 1; test: Antiviral activity against HIV1; assay type: functional, organism-based
[3] = test system: HEp-2; test: Cytotoxicity against human Hep2 cells assessed as reduction in cell viability incubated for 72 hrs by MTT assay; assay type: functional, cell-based; details: HEp-2, 72 h
[4] = Cytotoxicity against human MS cells assessed as reduction in cell viability incubated for 72 hrs by MTT assay; assay type: functional, cell-based
[5] = test system: RD; test: Cytotoxicity against human TE32 cells assessed as reduction in cell viability incubated for 72 hrs by MTT assay; assay type: functional, cell-based
[6] = test system: A549; test: Cytotoxicity against human A549 cells assessed as reduction in cell viability incubated for 72 hrs by MTT assay; assay type: functional, cell-based; details: A549, 72 h
[7] = test system: HCT-116; test: Induction of apoptosis in human HCT116 cells assessed as necrotic cells level at 2 uM incubated for 16 hrs by Annexin V-FICT/PI staining based flow cytometry (reference value: 1.67%); assay type: functional
[8] = test system: HCT-116; test: Induction of apoptosis in human HCT116 cells assessed as increase in mitochondrial membrane depolarization at 2 uM incubated for 18 hrs by rhodamine 123 staining based fluorescent inverted microscopy (reference value: 8%); assay type: functional
[9] = test system: HCT-116; test: Induction of apoptosis in human HCT116 cells assessed as late apoptotic cells level at 2 uM incubated for 16 hrs by Annexin V-FICT/PI staining based flow cytometry (reference value: 2.51%); assay type: functional
[10] = test system: HCT-116; test: Induction of apoptosis in human HCT116 cells assessed as early apoptotic cells level at 2 uM incubated for 16 hrs by Annexin V-FICT/PI staining based flow cytometry (reference value: 4.47%); assay type: functional
[11] = test system: HCT-116; test: Induction of apoptosis in human HCT116 cells assessed as viable cells level at 2 uM incubated for 16 hrs by Annexin V-FICT/PI staining based flow cytometry (reference value: 91.36%); assay type: functional
[12] = test system: Human alphaherpesvirus 1; test: Antiviral activity against HSV1; assay type: functional, organism-based
[13] = test system: HEK293; test: Cytotoxicity against HEK293 cells assessed as reduction in cell viability incubated for 72 hrs by MTT assay; assay type: cell-based; details: Homo sapiens, HEK293, 72 h
[14] = test system: HCT-116; test: Induction of apoptosis in human HCT116 cells assessed as increase in mitochondrial membrane depolarization at 10 uM incubated for 18 hrs by rhodamine 123 staining based fluorescent inverted microscopy (reference value: 8%); assay type: functional
[15] = Selectivity index, ratio of IC50 for HEK293 cells to IC50 for human TE32 cells; assay type: toxicity; details: HEK293 cells versus TE32 cells, read-out: Ratio IC50
[16] = test system: HCT-116; test: Cytotoxicity against human HCT116 cells assessed as reduction in cell viability at 10 uM incubated for 12 to 72 hrs by MTT assay; assay type: functional, cell-based; details: TDE = time-dependent effect
[17] = test system: HCT-116; test: Induction of apoptosis in human HCT116 cells assessed as increase in chromatin condensation at 10 uM incubated for 18 hrs by Hoechst 33258 staining based fluorescent inverted microscopy; assay type: functional
[18] = test system: HCT-116; test: Induction of apoptosis in human HCT116 cells assessed as necrotic cells level at 10 uM incubated for 16 hrs by Annexin V-FICT/PI staining based flow cytometry (reference value: 1.67%); assay type: functional
[19] = test system: HCT-116; test: Induction of apoptosis in human HCT116 cells assessed as increase in caspase-3/7 activity at 10 uM after 24 hrs by fluorimetric assay; assay type: functional, cell-based
[20] = Selectivity index, ratio of IC50 for HEK293 cells to IC50 for human Hep2 cells; assay type: toxicity; details: HEK293 cells versus Hep2 cells, read-out: Ratio IC50
[21] = Selectivity index, ratio of IC50 for HEK293 cells to IC50 for human HCT116 cells; assay type: toxicity; details: HEK293 cells versus HCT116 cells, read-out: Ratio IC50
[22] = test system: HCT-116; test: Induction of apoptosis in human HCT116 cells assessed as increase in caspase-3/7 activity at 10 uM after 18 hrs by fluorimetric assay; assay type: functional, cell-based
[23] = test system: HCT-116; test: Induction of apoptosis in human HCT116 cells assessed as increase in cck18 level at 10 uM after 18 hrs by fluorimetric assay; assay type: functional, cell-based
[24] = Selectivity index, ratio of IC50 for HEK293 cells to IC50 for human MS cells; assay type: toxicity; details: HEK293 cells versus MS cells, read-out: Ratio IC50
[25] = test system: HCT-116; test: Induction of apoptosis in human HCT116 cells assessed as increase in caspase-8 activity at 10 uM after 12 hrs by fluorimetric assay; assay type: functional, cell-based
[26] = test system: HCT-116; test: Induction of apoptosis in human HCT116 cells assessed as viable cells level at 10 uM incubated for 16 hrs by Annexin V-FICT/PI staining based flow cytometry (reference value: 91.36%); assay type: functional
[27] = test system: HCT-116; test: Induction of apoptosis in human HCT116 cells assessed as late apoptotic cells level at 10 uM incubated for 16 hrs by Annexin V-FICT/PI staining based flow cytometry (reference value: 2.51%); assay type: functional
[28] = test system: HCT-116; test: Induction of apoptosis in human HCT116 cells assessed as early apoptotic cells level at 10 uM incubated for 16 hrs by Annexin V-FICT/PI staining based flow cytometry (reference value: 4.47%); assay type: functional
[29] = test system: HL-60; test: Growth inhibition of human HL60 cells; assay type: functional

SMILES | IC50 [1] | IC50 [3] | IC50 [4] | IC50 [5] | IC50 [6] | further results
C=C(C)[C@@H]1CC[C@]2(C(=O)OC)CC[C@]3(C)[C@H](CC[C@@H]4[C@@](C)(CC#N)[C@H](C(C)(C)C(C)=O)CC[C@]43C)[C@@H]12 | > 100 µM | > 100 µM | > 100 µM | > 100 µM | > 100 µM | EC50 [2]: 39.9 µg/mL (≈ 80.5 µM)
CC[C@@]1(O)C(=O)OCc2c1cc1n(c2=O)Cc2cc3ccccc3nc2-1 [CAMPTOTHECIN] | 1.88 µM | 3.04 µM | 1.84 µM |  |  | Activity [7]: 1.6%; Activity [8]: -30%; Activity [9]: 5.07%; Activity [10]: 12.44%; Activity [11]: 80.88%
C=C(C)[C@@H]1CC[C@]2(C(=O)OC)CC[C@]3(C)[C@H](CC[C@@H]4[C@@]5(C)C/C(=N\O)[C@](C)(O)C(C)(C)[C@@H]5CC[C@]43C)[C@@H]12 | > 100 µM | 71 µM | 23.5 µM | 29 µM | 55.4 µM | 
CC(=O)C(C)(C)[C@@H]1CC[C@]2(C)[C@H](CC[C@@H]3[C@H]4[C@H]5OC[C@@]4(CCC5(C)C)CC[C@]32C)[C@@]1(C)CC#N | > 100 µM | > 100 µM | > 100 µM | > 100 µM | > 100 µM | EC50 [12]: 21.1 µg/mL (≈ 45.1 µM); EC50 [2]: 7.2 µg/mL (≈ 15.4 µM)
C=C(C=O)[C@@H]1CC[C@]2(C(=O)OC)CC[C@]3(C)[C@H](CC[C@@H]4[C@@](C)(CC#N)[C@H](C(C)(C)C(=O)C(Br)Br)CC[C@]43C)[C@@H]12 | 26.3 µM | > 100 µM | 6.27 µM | 6.96 µM | > 100 µM | 
C=C(C)[C@@H]1CC[C@]2(C(=O)OC)CC[C@]3(C)[C@H](CC[C@@H]4[C@@](C)(CC#N)[C@H](C(C)(C)[C@@H](C)OC(C)=O)CC[C@]43C)[C@@H]12 | > 100 µM | > 100 µM | 96.9 µM | 42.5 µM | 92.7 µM | 
COC(=O)[C@]12CC[C@@H](C(C)=O)[C@@H]1[C@H]1CC[C@@H]3[C@@](C)(CC#N)[C@H](C(C)(C)C(C)=O)CC[C@@]3(C)[C@]1(C)CC2 | > 100 µM | > 100 µM | > 100 µM | > 100 µM | > 100 µM | 
CC1(C)CC[C@]23CC[C@]4(C)[C@H](CC[C@@H]5[C@@]6(C)C(C#N)=C(CO)C(C)(C)[C@@H]6CC[C@]54C)[C@H]2[C@H]1OC3 | > 100 µM | > 100 µM | > 100 µM | > 100 µM | 57.8 µM | 
C=C(C=O)[C@@H]1CC[C@]2(C(=O)OC)CC[C@]3(C)[C@H](CC[C@@H]4[C@@]5(C)C(C#N)=C(C)C(C)(C)[C@@H]5CC[C@]43C)[C@@H]12 | 7.09 µM | 17.4 µM | 8.59 µM | 21.8 µM | 36 µM | 
COC(=O)[C@]12CC[C@@H](C(C)=O)[C@@H]1[C@H]1CC[C@@H]3[C@@]4(C)C(C#N)=C(C)C(C)(C)[C@@H]4CC[C@@]3(C)[C@]1(C)CC2 | > 100 µM | > 100 µM | > 100 µM | > 100 µM | > 100 µM | 
CC(=O)O[C@H](C)C(C)(C)[C@@H]1CC[C@]2(C)[C@H](CC[C@@H]3[C@H]4[C@H]5OC[C@@]4(CCC5(C)C)CC[C@]32C)[C@@]1(C)CC#N | 65.3 µM | > 100 µM | 21.3 µM | 31.9 µM | 45.7 µM | 
C=C(C)[C@@H]1CC[C@]2(C(=O)O)CC[C@]3(C)[C@H](CC[C@@H]4[C@@]5(C)[C@H](C(=O)O)[C@H](O)C(C)(C)[C@@H]5CC[C@]43C)[C@@H]12 [EPICEANOTHIC ACID] |  |  |  |  |  | EC50 [2]: < 0.064 µg/mL
C=C(C=O)[C@@H]1CC[C@]2(C(=O)OC)CC[C@]3(C)[C@H](CC[C@@H]4[C@@](C)(CC#N)[C@H](C(C)(C)C(C)=O)CC[C@]43C)[C@@H]12 | 7.3 µM | 52.1 µM | 5.48 µM | 5.04 µM | 15.4 µM | IC50 [13]: 6 µM
C=C(C=O)[C@@H]1CC[C@]2(C(=O)OC)CC[C@]3(C)[C@H](CC[C@@H]4[C@@](C)(CC#N)[C@H](C(C)(C)C(=O)CBr)CC[C@]43C)[C@@H]12 | 10.3 µM | 5.28 µM | 3.41 µM | 3.84 µM | 25.4 µM | IC50 [13]: 92.3 µM; Activity [14]: 11.6%; selectivity ratio [15]: 24.3; Activity [16]: Tde; Activity [17]: 28.3%; Activity [18]: 4.46%; Activity [19]: Active; selectivity ratio [20]: 17.4; selectivity ratio [21]: 8.9; Activity [22]: Active; Activity [23]: Active; selectivity ratio [24]: 27.2; Activity [25]: Active; Activity [26]: 59.86%; Activity [27]: 10.07%; Activity [28]: 25.61%
CC1(C)CC[C@]23CC[C@]4(C)[C@H](CC[C@@H]5[C@@](C)(CC#N)[C@H](C(C)(C)C(=O)CBr)CC[C@]54C)[C@H]2[C@H]1OC3 | > 100 µM | > 100 µM | > 100 µM | 52.9 µM | > 100 µM | 
C=C(C)[C@@H]1CC=C2[C@@H](CC[C@]3(C)[C@@H]([C@H](C)CC(=O)CC(C)C)CC[C@@]23C)[C@@]1(C)CCC(=O)O |  |  |  |  |  | GI50 [29]: 6.8 µM
CC1(C)CC[C@]23CC[C@]4(C)[C@H](CC[C@@H]5[C@@](C)(CC#N)[C@H](C(C)(C)C(=O)C(Br)Br)CC[C@]54C)[C@H]2[C@H]1OC3 | > 100 µM | > 100 µM | > 100 µM | > 100 µM | > 100 µM | 
C=C(C)[C@@H]1CC[C@]2(C(=O)OC)CC[C@]3(C)[C@H](CC[C@@H]4[C@@](C)(CC#N)[C@H](C(C)(C)[C@@H](C)O)CC[C@]43C)[C@@H]12 | 31.7 µM | 43.8 µM | 15.1 µM | 20.2 µM | 19.1 µM | 
C[C@@H](O)C(C)(C)[C@@H]1CC[C@]2(C)[C@H](CC[C@@H]3[C@H]4[C@H]5OC[C@@]4(CCC5(C)C)CC[C@]32C)[C@@]1(C)CC#N | > 100 µM | > 100 µM | 83.3 µM | 96.5 µM | > 200 µM | 
CC1(C)CC[C@]23CC[C@]4(C)[C@H](CC[C@@H]5[C@@]6(C)C/C(=N\O)[C@](C)(O)C(C)(C)[C@@H]6CC[C@]54C)[C@H]2[C@H]1OC3 | > 100 µM | 85.4 µM | 87.3 µM | 33.7 µM | > 100 µM | 
